{
  "source": "patent US20110028447A1",
  "about": "“INDAZOLE DERIVATIVES” (Pfizer Inc., priority 2008, published 2011)",
  "key": {"human CB1 receptor [1]": {"molecular_target": "T1, human CB1 receptor (Homo sapiens, UniProt P21554)", "T1 sequence (P21554 whole entry)": "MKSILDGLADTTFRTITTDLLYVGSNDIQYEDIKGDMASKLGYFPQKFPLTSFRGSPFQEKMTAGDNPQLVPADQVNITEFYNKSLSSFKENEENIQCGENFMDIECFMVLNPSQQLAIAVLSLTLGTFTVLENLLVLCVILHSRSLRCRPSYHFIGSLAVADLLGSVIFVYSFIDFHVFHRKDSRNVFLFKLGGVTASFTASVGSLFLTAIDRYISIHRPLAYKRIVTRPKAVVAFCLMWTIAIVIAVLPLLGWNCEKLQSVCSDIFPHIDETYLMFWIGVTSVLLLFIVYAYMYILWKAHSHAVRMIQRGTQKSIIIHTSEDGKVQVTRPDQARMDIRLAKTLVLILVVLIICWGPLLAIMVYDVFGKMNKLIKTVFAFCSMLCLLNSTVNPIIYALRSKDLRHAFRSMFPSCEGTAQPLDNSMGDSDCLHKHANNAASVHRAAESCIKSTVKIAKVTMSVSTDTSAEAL", "test": "[35S] GTPγS binding on membranes of CHO cells expressing the human CB1 receptor (agonism)", "type": "biochemical", "parameters": "expressed in transfected cells; membrane preparation", "in_short": "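Membranes from human CB1-expressing CHO cells (5 μg/well) incubated with test compound and [35S]GTPγS in 50 mM Tris pH 7.4, 100 mM NaCl, 3 mM MgCl2, 0.2 mM EGTA, 0.04% BSA for 45 min at 37 °C. Bound label collected by filtration, scintillation counted; EC50 from curve fits.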"}, "human CB1 receptor [2]": {"molecular_target": "T1, human CB1 receptor", "test": "Human CB1 receptor binding, [3H] CP-55,940 displacement on HEK cell membranes", "parameters": "expressed in transfected cells; host or cells: HEK cells, doxycycline-induced; membrane preparation", "in_short": "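Membranes from doxycycline-induced HEK cells expressing human CB1 incubated 60 min at room temperature with [3H] CP-55,940 (final […]) in 50 mM Tris pH 7.4, 100 mM NaCl, 3 mM MgCl2, 0.2 mM EGTA, 0.04% BSA. Nonspecific binding defined with 50 μM WIN-55,212-2; filtration and scintillation counting gave EC50 and Ki.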"}, "[3]": {"details": "GTPγS EC50, human CB1, CHO cell membranes"}, "[4]": {"details": "human CB1, CHO cell membranes, read-out: GTPγS EC50"}},
  "note": "Read-outs that look alike come from different tables or passages of the source.",
  "data": [
    {"smiles": "CC(C)(C)[C@H](NC(=O)c1nn(Cc2ccc(F)cc2)c2ccccc12)C(=O)NC[C@H](O)[C@@H](O)CO", "note": "[Example 517]", "values": [
      {"measurement": "EC50", "setting": "human CB1 receptor [1]; [3]", "value": 111, "unit": "nM"},
      {"measurement": "Ki", "setting": "human CB1 receptor [2]; CB1 Ki", "value": 15.9, "unit": "nM"}
    ]},
    {"smiles": "CC(C)(C)C(NC(=O)c1nn(Cc2ccc(F)cc2)c2ccccc12)C(=O)NCCc1nnc(C2CC2)o1", "note": "(stereo not drawn) [Example 148]", "values": [
      {"measurement": "EC50", "setting": "human CB1 receptor [1]; [4]", "value": 32.2, "unit": "nM"},
      {"measurement": "Ki", "setting": "human CB1 receptor [2]; read-out: CB1 Ki", "value": 1.8, "unit": "nM"}
    ]},
    {"smiles": "CC(C)(C)C(NC(=O)c1nn(Cc2ccc(F)cc2)c2ccccc12)C(=O)NCCO", "note": "(stereo not drawn) [Example 81]", "values": [
      {"measurement": "EC50", "setting": "human CB1 receptor [1]; [3]", "value": 0.98, "unit": "nM"},
      {"measurement": "Ki", "setting": "human CB1 receptor [2]; CB1 Ki", "value": 0.32, "unit": "nM"}
    ]},
    {"smiles": "CC(C)(C)[C@H](NC(=O)c1nn(Cc2ccc(F)cc2)c2c(Cl)cc(Cl)cc12)C(N)=O", "note": "[Example 226]", "values": [
      {"measurement": "EC50", "setting": "human CB1 receptor [1]; [3]", "value": 0.73, "unit": "nM"},
      {"measurement": "Ki", "setting": "human CB1 receptor [2]; CB1 Ki", "value": 0.18, "unit": "nM"}
    ]},
    {"smiles": "CC(C)(C)C(NC(=O)c1nn(Cc2ccc(F)cc2)c2c(F)cccc12)C(N)=O", "note": "(stereo not drawn) [Example 175]", "values": [
      {"measurement": "EC50", "setting": "human CB1 receptor [1]; [3]", "value": 0.64, "unit": "nM"},
      {"measurement": "Ki", "setting": "human CB1 receptor [2]; CB1 Ki", "value": 0.19, "unit": "nM"}
    ]},
    {"smiles": "CC(C)(C)[C@H](NC(=O)c1nn(Cc2ccc(F)cc2)c2ccccc12)C(=O)N1CCC(CO)CC1", "note": "[Example 223]", "values": [
      {"measurement": "EC50", "setting": "human CB1 receptor [1]; [3]", "value": 4.76, "unit": "nM"},
      {"measurement": "Ki", "setting": "human CB1 receptor [2]; CB1 Ki", "value": 1.12, "unit": "nM"}
    ]},
    {"smiles": "CC(C)(C)[C@H](NC(=O)c1nn(Cc2ccc(C#N)cc2)c2c(F)cccc12)C(=O)NCC(F)(F)F", "note": "[Example 309]", "values": [
      {"measurement": "EC50", "setting": "human CB1 receptor [1]; [3]", "value": 2.59, "unit": "nM"},
      {"measurement": "Ki", "setting": "human CB1 receptor [2]; CB1 Ki", "value": 1.59, "unit": "nM"}
    ]},
    {"smiles": "CC(C)(C)[C@H](NC(=O)c1nn(Cc2ccc(F)cc2)c2ccccc12)C(=O)NCCC(N)=O", "note": "[Example 470]", "values": [
      {"measurement": "EC50", "setting": "human CB1 receptor [1]; [3]", "value": 33.7, "unit": "nM"},
      {"measurement": "Ki", "setting": "human CB1 receptor [2]; CB1 Ki", "value": 11.2, "unit": "nM"}
    ]},
    {"smiles": "CC(C)(C)C(NC(=O)c1nn(Cc2ccccc2)c2ccccc12)C(=O)NCCNS(=O)(=O)C1CC1", "note": "(stereo not drawn) [Example 96]", "values": [
      {"measurement": "EC50", "setting": "human CB1 receptor [1]; [4]", "value": 16.9, "unit": "nM"},
      {"measurement": "Ki", "setting": "human CB1 receptor [2]; read-out: CB1 Ki", "value": 1.18, "unit": "nM"}
    ]},
    {"smiles": "CC(C)(C)C(NC(=O)c1nn(Cc2ccc(F)cc2)c2c(F)cccc12)C(=O)NC1CC1", "note": "(stereo not drawn) [Example 176]", "values": [
      {"measurement": "EC50", "setting": "human CB1 receptor [1]; [3]", "value": 0.51, "unit": "nM"},
      {"measurement": "Ki", "setting": "human CB1 receptor [2]; CB1 Ki", "value": 0.22, "unit": "nM"}
    ]},
    {"smiles": "CC(C)(C)[C@H](NC(=O)c1nn(Cc2ccc(C#N)cc2F)c2ccccc12)C(=O)NCCNS(=O)(=O)C1CC1", "note": "[Example 98]", "values": [
      {"measurement": "EC50", "setting": "human CB1 receptor [1]; [4]", "value": 8.63, "unit": "nM"},
      {"measurement": "Ki", "setting": "human CB1 receptor [2]; read-out: CB1 Ki", "value": 0.98, "unit": "nM"}
    ]},
    {"smiles": "CC(C)(C)C(NC(=O)c1nn(Cc2ccc(F)cc2)c2ccccc12)C(=O)NCC(O)CO", "note": "(stereo not drawn) [Example 79]", "values": [
      {"measurement": "EC50", "setting": "human CB1 receptor [1]; [3]", "value": 27.1, "unit": "nM"},
      {"measurement": "Ki", "setting": "human CB1 receptor [2]; CB1 Ki", "value": 2.02, "unit": "nM"}
    ]},
    {"smiles": "CC(C)(C)[C@H](NC(=O)c1nn(Cc2ccc(C#N)cc2F)c2c(F)c(F)ccc12)C(=O)NCc1nnc(C(N)=O)o1", "note": "[Example 365]", "values": [
      {"measurement": "EC50", "setting": "human CB1 receptor [1]; [4]", "value": 34.8, "unit": "nM"},
      {"measurement": "Ki", "setting": "human CB1 receptor [2]; read-out: CB1 Ki", "value": 11.9, "unit": "nM"}
    ]},
    {"smiles": "CC(C)(C)[C@H](NC(=O)c1nn(Cc2ccc(F)cc2)c2c(F)cc(Cl)cc12)C(=O)NC[C@H](O)CO", "note": "[Example 496]", "values": [
      {"measurement": "EC50", "setting": "human CB1 receptor [1]; [3]", "value": 30.2, "unit": "nM"},
      {"measurement": "Ki", "setting": "human CB1 receptor [2]; CB1 Ki", "value": 16.5, "unit": "nM"}
    ]},
    {"smiles": "CC(C)(C)C(NC(=O)c1nn(Cc2ccc(C#N)cc2F)c2ccccc12)C(=O)NCCO", "note": "(stereo not drawn) [Example 91]", "values": [
      {"measurement": "EC50", "setting": "human CB1 receptor [1]; [3]", "value": 53.8, "unit": "nM"},
      {"measurement": "Ki", "setting": "human CB1 receptor [2]; CB1 Ki", "value": 1.87, "unit": "nM"}
    ]},
    {"smiles": "CC(C)(C)[C@H](NC(=O)c1nn(Cc2ccc(F)cc2)c2c(F)cc(Cl)cc12)C(=O)NCCS(N)(=O)=O", "note": "[Example 497]", "values": [
      {"measurement": "EC50", "setting": "human CB1 receptor [1]; [3]", "value": 59.5, "unit": "nM"},
      {"measurement": "Ki", "setting": "human CB1 receptor [2]; CB1 Ki", "value": 16.7, "unit": "nM"}
    ]},
    {"smiles": "CC(C)(C)[C@H](NC(=O)c1nn(Cc2ccc(F)cc2)c2ccccc12)C(=O)NCCNC(=O)C1CC1", "note": "[Example 103]", "values": [
      {"measurement": "EC50", "setting": "human CB1 receptor [1]; [4]", "value": 9.08, "unit": "nM"},
      {"measurement": "Ki", "setting": "human CB1 receptor [2]; read-out: CB1 Ki", "value": 2.68, "unit": "nM"}
    ]},
    {"smiles": "CC(C)NC(=O)CNC(=O)[C@@H](NC(=O)c1nn(Cc2ccc(F)cc2)c2ccccc12)C(C)(C)C", "note": "[Example 493]", "values": [
      {"measurement": "EC50", "setting": "human CB1 receptor [1]; [3]", "value": 9.94, "unit": "nM"},
      {"measurement": "Ki", "setting": "human CB1 receptor [2]; CB1 Ki", "value": 0.95, "unit": "nM"}
    ]},
    {"smiles": "Cc1nc(CNC(=O)[C@@H](NC(=O)c2nn(Cc3ccc(F)cc3)c3ccccc23)C(C)(C)C)nn1C", "note": "[Example 421]", "values": [
      {"measurement": "EC50", "setting": "human CB1 receptor [1]; [4]", "value": 17.2, "unit": "nM"},
      {"measurement": "Ki", "setting": "human CB1 receptor [2]; read-out: CB1 Ki", "value": 2.88, "unit": "nM"}
    ]},
    {"smiles": "CC(C)(C)[C@H](NC(=O)c1nn(Cc2ccc(F)cc2)c2ccccc12)C(=O)NCCc1nc2ccccc2c(=O)[nH]1", "note": "[Example 501]", "values": [
      {"measurement": "EC50", "setting": "human CB1 receptor [1]; [4]", "value": 16.8, "unit": "nM"},
      {"measurement": "Ki", "setting": "human CB1 receptor [2]; read-out: CB1 Ki", "value": 24.2, "unit": "nM"}
    ]},
    {"smiles": "CC(C)(C)[C@H](NC(=O)c1nn(Cc2ccc(C#N)cc2)c2ccccc12)c1nnc(N)o1", "note": "[Example 71]", "values": [
      {"measurement": "EC50", "setting": "human CB1 receptor [1]; [4]", "value": 314, "unit": "nM"},
      {"measurement": "Ki", "setting": "human CB1 receptor [2]; read-out: CB1 Ki", "value": 8.85, "unit": "nM"}
    ]},
    {"smiles": "CC(C)(C)[C@H](NC(=O)c1nn(Cc2ccc(F)cc2)c2ccccc12)C(=O)N1CCN(C(N)=O)CC1", "note": "[Example 220]", "values": [
      {"measurement": "EC50", "setting": "human CB1 receptor [1]; [4]", "value": 3.78, "unit": "nM"},
      {"measurement": "Ki", "setting": "human CB1 receptor [2]; read-out: CB1 Ki", "value": 1.26, "unit": "nM"}
    ]},
    {"smiles": "CC(C)(C)[C@H](NC(=O)c1nn(Cc2ccc(F)cc2)c2c(F)c(F)ccc12)C(=O)NCCS(C)(=O)=O", "note": "[Example 326]", "values": [
      {"measurement": "EC50", "setting": "human CB1 receptor [1]; [3]", "value": 53.2, "unit": "nM"},
      {"measurement": "Ki", "setting": "human CB1 receptor [2]; CB1 Ki", "value": 15.8, "unit": "nM"}
    ]},
    {"smiles": "CC(C)(C)C(NC(=O)c1nn(Cc2cccc(F)c2)c2ccccc12)C(N)=O", "note": "(stereo not drawn) [Example 19]", "values": [
      {"measurement": "EC50", "setting": "human CB1 receptor [1]; [3]", "value": 20.5, "unit": "nM"},
      {"measurement": "Ki", "setting": "human CB1 receptor [2]; CB1 Ki", "value": 2.57, "unit": "nM"}
    ]}
  ]
}
